Values quoted from earlier work as cited in publication PMC5742115, “Pharmacophore Modeling and in Silico/in Vitro Screening for Human Cytochrome P450 11B1 and Cytochrome P450 11B2 Inhibitors” (Frontiers in Chemistry, 2017).
Read-outs that look alike come from different tables or passages of the source.

Experiments:
[1] = test system: CYP11B1; conditions: reported activity, supplementary Table 1, read-out: CYP11B1 IC50, cited from earlier work
[2] = test system: CYP11B2; conditions: reported activity, supplementary Table 1, read-out: CYP11B2 IC50, cited from earlier work

Row | Compound | IC50 ([1]; ref Heim et al., 2008) [nM] | IC50 ([2]; ref Heim et al., 2008) [nM] | IC50 ([1]; ref Lucas et al., 2008b) [nM] | IC50 ([2]; ref Lucas et al., 2008b) [nM] | other results
1 | Fc1ccc2c(c1)CC/C2=C/c1cccnc1 [CHEMBL383806] | – | – | – | – | IC50 ([1]; ref Ulmschneider et al., 2005a): 125 nM; IC50 ([2]; ref Ulmschneider et al., 2005a): 11 nM
2 | Clc1ccc2c(c1)CC/C2=C\c1cccnc1 [CHEMBL383807] | – | – | – | – | IC50 ([1]; ref Ulmschneider et al., 2005a): 1470 nM; IC50 ([2]; ref Ulmschneider et al., 2005a): 26 nM
3 | c1ccc(-c2csc(Cn3ccnc3)c2)cc1 [CHEMBL403598] | – | – | – | – | IC50 ([1]; ref Hille et al., 2011b): 19 nM; IC50 ([2]; ref Hille et al., 2011b): 277 nM
4 | Fc1ccc2c(c1)CC/C2=C\c1ccncc1 [CHEMBL424960] | – | – | – | – | IC50 ([1]; ref Ulmschneider et al., 2005a): 1100 nM; IC50 ([2]; ref Ulmschneider et al., 2005a): 15 nM
5 | CCOc1ccc2c(c1)CC/C2=C\c1cccnc1 [CHEMBL425323] | – | – | – | – | IC50 ([1]; ref Ulmschneider et al., 2005a): 2370 nM; IC50 ([2]; ref Ulmschneider et al., 2005a): 79 nM
6 | COC(=O)c1ccc2cc(-c3cccnc3)ccc2c1 [CHEMBL438802] | – | – | – | – | IC50 ([1]; ref Voets et al., 2005): 10500 nM; IC50 ([2]; ref Voets et al., 2005): 72 nM
7 | CCOc1cncc(-c2ccc3cc(OC)ccc3c2)c1 [CHEMBL445259] | 373 | 5.1 | – | – | –
8 | CN1C(=O)CCc2cc(-c3cccnc3)ccc21 [CHEMBL446083] | – | – | 742 | 2.6 | –
9 | COc1cncc(-c2ccc3cc(OC)ccc3c2)c1 [CHEMBL447591] | 238 | 4.2 | – | – | –
10 | COc1ccc2cc(-c3cncc(CO)c3)ccc2c1 [CHEMBL448064] | 614 | 9.1 | – | – | –
11 | COc1ccc2cc(-c3cnccc3CO)ccc2c1 [CHEMBL449894] | 1760 | 22 | – | – | –
12 | CN1C(=O)CCc2cc(-c3cncc4ccccc34)ccc21 [CHEMBL451505] | – | – | 6.9 | 0.1 | –
13 | COc1ccc2cc(-c3cnccc3N)ccc2c1 [CHEMBL453169] | 1520 | 13 | – | – | –
14 | O=C1CCc2cc(-c3cncc4ccccc34)ccc2N1 [CHEMBL456390] | – | – | 33 | 0.2 | –
15 | CCN1C(=O)CCc2cc(-c3cccnc3)ccc21 [CHEMBL457425] | – | – | 5180 | 22 | –
16 | O=C1CCc2cc(-c3cccnc3)cc(Cl)c2N1 [CHEMBL457640] | – | – | 1670 | 3.8 | –
17 | COc1cncc(-c2ccc3c(c2)CCC(=O)N3)c1 [CHEMBL457646] | – | – | 339 | 2.7 | –
18 | COc1cncc(-c2ccc3c(c2)CCC(=O)N3C)c1 [CHEMBL457856] | – | – | 87 | 0.2 | –
19 | COC1CCc2cc(-c3cccnc3)ccc2C1 (stereo not drawn) [CHEMBL460178] | – | – | 1140 | 3.3 | –
20 | c1cncc(-c2ccc3c(c2)CCCC3)c1 [CHEMBL461457] | – | – | 1980 | 29 | –

Row | Compound | IC50 ([1]; ref Heim et al., 2008) [nM] | IC50 ([2]; ref Heim et al., 2008) [nM] | IC50 ([1]; ref Lucas et al., 2008b) [nM] | IC50 ([2]; ref Lucas et al., 2008b) [nM] | other results
21 | OC1CCc2cc(-c3cccnc3)ccc2C1 (stereo not drawn) [CHEMBL461458] | – | – | 4920 | 44 | –
22 | N#CC1=Cc2ccc(-c3cccnc3)cc2CC1 [CHEMBL461884] | – | – | 290 | 1.6 | –
23 | O=C1CCc2cc(-c3cccnc3)ccc2C1 [CHEMBL462093] | – | – | 3960 | 7.8 | –
24 | c1ccc(Cn2cncc2-c2ccccc2)cc1 [CHEMBL463582] | – | – | – | – | IC50 ([1]; ref Roumen et al., 2010): 4.8 nM; IC50 ([2]; ref Roumen et al., 2010): 11 nM
25 | COc1cncc(-c2ccc3c(c2)CCC(=O)C3)c1 [CHEMBL499007] | – | – | 191 | 1.8 | –
26 | COc1ccc2c(c1)CC(C)C(c1cncc3ccccc13)=C2 (stereo not drawn) [CHEMBL499044] | 64 | 0.5 | – | – | –
27 | COc1ccc2cc(-c3cccnc3)c(C)cc2c1 [CHEMBL499871] | 1050 | 7 | – | – | –
28 | COc1cncc(C2=Cc3ccc(OC)cc3CC2C)c1 (stereo not drawn) [CHEMBL500145] | 100 | 1.2 | – | – | –
29 | COC(=O)c1cncc(-c2ccc3cc(OC)ccc3c2)c1 [CHEMBL500146] | 15 | 0.8 | – | – | –
30 | COc1ccc2cc(-c3cncc(C(C)OC)c3)ccc2c1 (stereo not drawn) [CHEMBL500392] | 10 | 0.2 | – | – | –
31 | COc1ccc2cc(-c3cncc(-c4ccccc4)c3)ccc2c1 [CHEMBL500393] | 151 | 4.8 | – | – | –
32 | COc1ccc2cc(-c3cncc4ccccc34)ccc2c1 [CHEMBL500394] | 67 | 0.6 | – | – | –
33 | COc1ccc2cc(-c3cncc(C(C)O)c3)ccc2c1 (stereo not drawn) [CHEMBL500395] | 99 | 0.5 | – | – | –
34 | COCc1cncc(-c2ccc3cc(OC)ccc3c2)c1 [CHEMBL500421] | 31 | 0.2 | – | – | –
35 | COc1ccc2cc(-c3cncc(O)c3)ccc2c1 [CHEMBL500636] | 8920 | 94 | – | – | –
36 | N#Cc1ccc2c(c1)CCC(c1cccnc1)=C2 [CHEMBL500663] | 461 | 4.5 | – | – | –
37 | COc1ccc2cc(-c3cnccc3C)ccc2c1 [CHEMBL500664] | 114 | 0.8 | – | – | –
38 | Cc1ccncc1-c1ccc2cc(C#N)ccc2c1 [CHEMBL500665] | 52 | 0.6 | – | – | –
39 | COCc1ccncc1-c1ccc2cc(OC)ccc2c1 [CHEMBL500676] | 435 | 2.2 | – | – | –
